Entries after “also recorded” stand apart in the source; their conditions may differ.
Columns and labels:
FhCL1 [1] = biological target: T1, FhCL1 (Fasciola hepatica, UniProt Q7JNQ9); experiment: FhCL1 inhibition screening, IC50 and slow-binding (fluorogenic substrate Z-VLK-AMC); type: biochemical; conditions: read-out: %Inh FhCL1, 10 µM compound, 20 min preincubation, relative to enzyme alone; SD less than 10%
T1 construct: made in house; host or cells: Hansenula polymorpha (yeast)
Description: (§1) Each compound was completely dissolved in dimethylsulfoxide (DMSO) to a concentration of 10 mM to prepare the stock solutions. To evaluate the inhibition of FhCL1 and FhCL3 by quinoxaline 1,4-di-N-oxide derivatives, nanomolar concentrations of each enzyme was incubated with compounds at 10 μM. Briefly, each enzyme and compound were preincubated 20 min in a 96-well plate in 0.1 M sodium phosphate buffer pH 6, 1 mM DTT, and 1 mM EDTA at room temperature. The reaction was initiated by adding 20 μM of substrate and enzyme activity was measured by the increase in aminomethyl coumarin (AMC) fluorescence as peptide substrates were hydrolyzed (Z-VLK-AMC for FhCL1 and Tos-GPR-AMC for FhCL3), at an excitation wavelength of 340 nm and emission wavelength of 440 nm using a spectrofluorometer (Varioskan Thermo, Waltham, MA, USA). Enzyme activity was expressed as RFU/s (relative fluorescence units of AMC released per second). Each compound was tested in triplicate. A control reaction without enzymes was performed to check for the occurrence of non-catalyzed reactions between substrates and inhibitors and a spectrum from 300 to 450 nm wavelength was done for each quinoxaline 1,4-di-N-oxide derivative to verify that none of them had optical activity in the measurement range. The percentage of enzyme inhibition was calculated as 100 − (vi/vo) × 100, where vi and vo correspond to the initial rate of AMC fluorescence increase (RFU/s) with and without inhibitor, respectively.
(§2) To calculate the IC50 values, compounds were incubated with each enzyme at seven different concentrations; 0.625, 1.25, 2.5, 5, 10, 20, and 40 μM. Then, the enzyme activity was measured in a 96-well plate as described before. We plotted initial rates (RFU/s) versus log10 of inhibitor concentrations and obtained the IC50 values by fitting the data to a sigmoid curve. We also carried out slow-binding assays to evaluate the time-dependence of the inhibition. Each compound was incubated at 10 μM with the enzyme for increasing lengths of time; 3 to 120 min and the percentage of inhibition at each time point was determined as described before. We calculated the inhibition percentage of the leader compounds at 10 μM for HsCL1. The enzyme was preincubated for 20 min with the compounds and the activity was measured in a 96-well plate in 400 mM sodium acetate, pH 5.5, with 4 mM EDTA, 8 mM DTT, and 20 μM of substrate Z-VLK-AMC. The percentage of enzyme inhibition was calculated as described for FhCL1 and FhCL3. We determined the IC50 value for C17 against HsCL by incubating the enzyme with four different concentrations of the compound 0, 10, 25, and 50 μM and measuring the activity as described before. We plotted initial rates (RFU/s) versus log10 of inhibitor concentration and obtained the IC50 value by fitting the data to a sigmoid curve.

F. hepatica NEJ [2] = experiment: In vitro culture of NEJ and treatment with inhibitors (motility score); type: cell-based, Fasciola hepatica; conditions: 50 μM compound, over 96 h
Description: F. hepatica metacercariae were acquired from Instituto Miguel C. Rubino (DILAVE, MGAP, Uruguay). NEJ were obtained by in vitro excystement as previously described with minor modifications. Briefly, metacercariae were incubated with 1% sodium hypochlorite for 5 min at room temperature to remove the outer cyst wall and then washed several times with PBS. Metacercariae activation was carried out in a medium prepared by mixing equal volumes of solution A (0.4% sodium taurocholate, 120 mM NaHCO3, 140 mM NaCl, pH 8.0) and solution B (50 mM HCl and 33 mM L-cysteine), and incubating at 39 °C until the NEJ begin to emerge (around 3–4 h). A 100 μm filter was used to retain the cyst wall. Collected NEJ were washed three times with RPMI-1640 supplemented with 200 U/mL Penicillin G sulfate, […] streptomycin sulfate, 500 ng/mL amphotericin B, 10 mM HEPES, counted and divided into groups of around 20 parasites that were transferred to 96 wells in tissue culture plates. Parasites were maintained at 37 °C, 5% CO2 in modified Basch’s medium. At day 1, each tested compound was added at a concentration of 50 μM in 0.5% DMSO. Also, 0.5% of DMSO was added to the control groups. Each condition was tested in duplicate. NEJ behavior was monitored under a light microscope (Olympus BX41, Hamburg, Germany), every day each well was recorded for a minute in order to assess parasite motility and registered using the following score: 3—normally active; 2—reduced activity (sporadic movement); 1—immotile (dead, adapted from). Control parasites were maintained in culture for seven days.

FhCL3 [3] = experiment: FhCL3 inhibition screening, IC50 and slow-binding (fluorogenic substrate Tos-GPR-AMC); type: biochemical, Fasciola hepatica; conditions: 10 µM compound, 20 min preincubation, relative to enzyme alone; SD less than 10%
Description: as §1, §2

FhCL1 [4] = biological target: T1, FhCL1; experiment: FhCL1 inhibition screening, IC50 and slow-binding (fluorogenic substrate Z-VLK-AMC); type: biochemical; conditions: 10 μM, preincubation 5 to 120 min
bovine spermatozoa = experiment: Cytotoxicity assay with bovine spermatozoa (CASA motility); type: cell-based; conditions: 50 µM, 1 h at 37 °C, relative to control sperm incubated with vehicle
Description: (§3) Cytotoxicity studies on the HepG2 cell line. Cells: 1.5 × 10^4 cells per 96-well plate were cultured in 225 µL of DMEM medium, supplemented with L-glutamine (1%), penicillin/streptomycin (1%), and 10% (v/v) fetal bovine serum (FBS). The cultures were maintained at 37 °C and 5% CO2 for 48 h. Treatment: Compound solutions were prepared just before dosing. Stock solutions, […], were prepared in 100% DMSO (Aldrich, Saint Louis, MO, USA) and 25 µL of adequate dilution was added to each well 24 h after plating the cells. For each compound, a dose-response curve was done with five different compound concentrations: 6.25, 12.5, 25, 50, and 100 µM (treated cells, T). No effect on cell growth was observed by the presence of 0.5% DMSO in the culture media (control cells, C). Cells were incubated with the compounds for 24 h at 37 °C in 5% CO2 atmosphere, then the medium was discarded and the cells were washed with PBS. The cells were then fixed with 50 µL of TCA (50%) and 200 µL of culture medium (without FBS) for 1 h at 4 °C. Then the cells were washed with purified water and treated with Sulforhodamin B (0.4% wt/vol in 1% acetic acid) for 10 min at room temperature. The plates were then washed with 1% acetic acid and dried overnight. Finally, 100 µL of Tris buffer (pH = 10.0) was added and absorbance read at 540 nm. Data calculations: The assays were done in four replicates. At the end of the experiment, the cell survival percentage (SP) was calculated for each compound as (T/C) × 100. To determine the IC50, the SP of cells at each compound concentration was plotted and the data were fitted to a sigmoid curve. The standard error was not greater than 10% for any condition. For the cytotoxicity assay with bovine spermatozoa, semen samples were obtained from a healthy fertile Hereford bull and kept frozen in 0.5 mL straws (extended in Andromed, Minitube, Tiefenbach, Germany) under liquid nitrogen until use. The semen used belonged to a single freezing batch that was obtained during a regular collection schedule with an artificial vagina. Samples from three straws were thawed and a sperm pool was prepared in PBS at a concentration of 80 million spermatozoa per ml. Then, 50 μL of this pool was carefully mixed with 50 μL of each compound to be tested at a concentration of 50 µM or 1% DMSO in control experiments. Each compound was assayed in triplicate in 96-well plates and controls were assayed in triplicate. Plates were incubated at 37 °C for 1 h with moderate shaking. The motility analysis was carried out using a CASA (Computer Assisted Semen Analyzer) system Androvision (Minitube, Tiefenbach, Germany) with an Olympus BX 41 microscope (Olympus, Japan) equipped with a warm-stage at 37 °C. Each sample (10 μL) was placed onto a Makler Counting Chamber (depth 10 μm, Sefi-Medical Instruments, Haifa, Israel) and the following parameters were evaluated: percentage of total motile spermatozoa (motility >5 μm/s) and velocity curved line (VCL > 24 μm/s). At least 400 spermatozoa were analyzed from each sample from at least four microscope fields.

HepG2 cell line = experiment: Cytotoxicity on the HepG2 cell line (Sulforhodamin B); type: cell-based; conditions: Homo sapiens, 24 h incubation with compound
Description: as §3

human cathepsin L (HsCL) = human cathepsin L (HsCL) (Homo sapiens, UniProt P07711); experiment: Human cathepsin L (HsCL) inhibition, selectivity assessment; type: biochemical
Chain of human cathepsin L (HsCL) (P07711 114-333): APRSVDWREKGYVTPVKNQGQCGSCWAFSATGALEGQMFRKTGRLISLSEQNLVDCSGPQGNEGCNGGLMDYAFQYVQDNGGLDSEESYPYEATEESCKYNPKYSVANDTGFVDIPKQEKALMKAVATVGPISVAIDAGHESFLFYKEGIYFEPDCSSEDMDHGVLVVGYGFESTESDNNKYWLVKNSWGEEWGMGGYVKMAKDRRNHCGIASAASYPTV
Description: as §2

F. hepatica NEJ [5] = experiment: In vitro culture of NEJ and treatment with inhibitors (motility score); type: cell-based; conditions: Fasciola hepatica; after 48 h of incubation with NEJ; read-out: IC50 against NEJ
FhCL3 [6] = experiment: FhCL3 inhibition screening, IC50 and slow-binding (fluorogenic substrate Tos-GPR-AMC); type: biochemical, Fasciola hepatica; conditions: 10 μM, preincubation 5 to 120 min

T1 sequence (Q7JNQ9 entry or part of it): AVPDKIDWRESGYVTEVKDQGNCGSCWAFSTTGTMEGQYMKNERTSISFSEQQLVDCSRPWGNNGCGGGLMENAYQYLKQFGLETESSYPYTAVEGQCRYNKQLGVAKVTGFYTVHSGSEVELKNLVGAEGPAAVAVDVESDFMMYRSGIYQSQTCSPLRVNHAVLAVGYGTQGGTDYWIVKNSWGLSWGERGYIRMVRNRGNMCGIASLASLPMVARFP

| SMILES | inhibition at 10 µM (FhCL1 [1]) [%] | Effect on NEJ motility / fasciolicide activity in vitro (F. hepatica NEJ [2]) | %Inh FhCL3 (FhCL3 [3]) [%] | Time-dependence of FhCL1 inhibition (slow-binding) (FhCL1 [4]) | Sperm Motility RTC (relative to control) (bovine spermatozoa) | IC50 (HepG2 cell line) [µM] | IC50 (human cathepsin L (HsCL); dose-response at 0, 10, 25 and 50 μM) [µM] | Selectivity index FhCL1 (human cathepsin L (HsCL); parasite enzyme FhCL1 over human cathepsin L) | Selectivity index FhCL3 (human cathepsin L (HsCL); parasite enzyme FhCL3 over human cathepsin L) | IC50 (F. hepatica NEJ [5]) [µM] | Time-dependence of FhCL3 inhibition (slow-binding) (FhCL3 [6]) |
| --- | --- | --- | --- | --- | --- | --- | --- | --- | --- | --- | --- |
| N#Cc1c(N)[n+]([O-])c2ccc(/C=N/NC(=O)NCCc3ccccc3)cc2[n+]1[O-] [Compound C7] | 90 | did not have activity against the parasites; also recorded: did not have fasciolicidal activity | 61 | required short times to inhibit FhCL1 enzyme |  |  |  |  |  |  |  |
| C=CCNC(=S)N/N=C/c1ccc2c(c1)[n+]([O-])c(C(=O)OCC)c(-c1ccccc1)[n+]2[O-] [Compound C17] | ≥ 80 | progressive decrease of parasite motility starting between 24 and 96 h of culture; also recorded: strong fasciolicide activity in vitro |  | required short times to inhibit FhCL1 enzyme | 81 ± 3 | 48 ± 0.3 | 13 | 9.3 | 2.6 | 25.1 |  |
| CCOC(=O)c1c(-c2ccccc2)[n+]([O-])c2ccc(CN3CCN(C/C=C/c4ccccc4)CC3)cc2[n+]1[O-] [Compound C18] | 55 | progressive decrease of parasite motility starting between 24 and 96 h of culture; also recorded: strong fasciolicide activity in vitro | 61 |  | 82 ± 2 | < 6.2 |  |  |  |  | reached high inhibition of FhCL3 within a few minutes of incubation |
| C=CCNC(=S)N/N=C/c1ccc2c(c1)[n+]([O-])c(-c1ccccc1)c(C(=O)Nc1ccccc1)[n+]2[O-] [Compound C23] | ≥ 80 | slightly affected parasite motility; also recorded: did not have fasciolicidal activity |  | required short times to inhibit FhCL1 enzyme | 82 ± 1 | 12 ± 0.2 |  |  |  |  | reached high inhibition of FhCL3 within a few minutes of incubation |
